Measurements published in patent US20250051281A1, “CRYSTALLINE FORM OF AROMATIC RING DERIVATIVE, AND PREPARATION METHOD THEREFOR AND APPLICATION THEREOF” (SHANGHAI JEMINCARE PHARMACEUTICAL CO., LTD, priority 2021, published 2025).

Experiments:
Assay type in all cases: physicochemical
[1] = Changes in shape of crystal forms under high temperature, high humidity and light exposure (Table 26)
Source text: (§1) Consequently, the inventors selected four crystal forms with good reproducibility and ease of purification: crystal forms A, B, G, and Q. These crystal forms were subjected to stability tests under identical conditions of high temperature, high humidity, and light exposure.

[2] = Purity of crystal forms at storage conditions of 25° C. and 40° C. (Table 27)
Procedure: (§2) The high-performance liquid chromatography (HPLC) analysis method used in the present disclosure is as follows: an Agilent 1260 was used to test the purity and stability of the sample under the conditions shown in Table 18.
The purity of crystal forms A, B, G, and Q, under identical mass and packaging conditions, was investigated at storage conditions of 25° C. and 40° C., as shown in Table 27.

[3] = Stability test of crystal forms under high temperature, high humidity and light exposure (HPLC purity); conditions: for Purity after 30 days at a temperature of 25° C. with a relative humidity of 90% ± 5%: 90% ± 5% RH; for Purity after 30 days at a temperature of 25° C. with a relative humidity of 90% ± 5% / Purity after 30 days at high temperature (60° C.) / Purity after 30 days at a light intensity of 4500 Lx ± 500 Lx / Initial purity: HPLC purity; for Initial purity: before stress conditions
Source text: as §2, §1

[4] = Stability verification of crystal form G in different solvents (XRPD form after slurry or vapour exposure); conditions: room temperature, dried under vacuum at 50° C. for 2 hours
Procedure: The X-ray powder diffraction analysis method used in the present disclosure is as follows: X-ray powder diffraction testing was conducted at room temperature using a Bruker D2 PHASER diffractometer (300 W low-power X-ray emitter). During the test, a silicon wafer was used to sustain the sample powder, and an X-ray Cu (Kα) tube was used, with a Kα2/Kα1 intensity ratio of 0.50 (1.54439 Å/1.5406 Å). The instrument was set to 30 kV and 10 mA, with a step size of 0.02° (2θ), a scanning time of 0.15 s per step, for a total of 1837 steps.
Method 1: The crystal form G (50 mg) was added to 0.5 mL of the corresponding solvent (the solvent may be EtOH, H2O, or a mixture of EtOH/H2O in the ratios of 970/30, 927/73, 855/145, 704/296, v/v).
Method 2: The crystal form G (15 mg) was placed in a 4 mL glass vial, which was then placed inside a 20 mL glass vial containing 3 mL of a volatile solvent (which may be MeOH or EtOH). The 20 mL glass vial was tightly capped and left to stand at room temperature for approximately one week.

[5] = High Temperature (60° C.), 5 Days
[6] = High Temperature (60° C.), 10 Days
[7] = High Temperature (60° C.), 30 Days
[8] = Light intensity of 4500 Lx ± 500 Lx, 5 Days
[9] = Light intensity of 4500 Lx ± 500 Lx, 10 Days
[10] = Light intensity of 4500 Lx ± 500 Lx, 30 Days
[11] = Temperature of 25° C., relative humidity of 90% ± 5%, 5 Days
[12] = Temperature of 25° C., relative humidity of 90% ± 5%, 10 Days
[13] = Temperature of 25° C., relative humidity of 90% ± 5%, 30 Days

Cc1c(CCC(=O)O)[nH]c2ccc(OCc3ccc(C4CCCC4)c(C(F)(F)F)c3)cc12 [Crystal form A]
Shape (appearance) [1, 5]: Off-white
Shape (appearance) [1, 6]: Pale yellow
Shape (appearance) [1, 7]: Yellow solid
Shape (appearance) ([1]; Initial State): Off-white
Shape (appearance) [1, 8]: Off-white
Shape (appearance) [1, 9]: Pale yellow
Shape (appearance) [1, 10]: Yellow solid
Shape (appearance) [1, 11]: Off-white
Shape (appearance) [1, 12]: Off-white
Shape (appearance) [1, 13]: Off-white
Purity on storage ([2]; 25° C., 0 Days): 99.03%
Purity on storage ([2]; 25° C., 15 Days): 98.91%
Purity on storage ([2]; 25° C., 30 Days): 98.93%
Purity on storage ([2]; 25° C., 45 Days): 98.87%
Purity on storage ([2]; 25° C., 60 Days): 98.85%
Purity on storage ([2]; 25° C., 90 Days): 98.73%
Purity on storage ([2]; 40° C., 0 Days): 99.03%
Purity on storage ([2]; 40° C., 15 Days): 98.73%
Purity on storage ([2]; 40° C., 30 Days): 98.42%
Purity on storage ([2]; 40° C., 45 Days): 98.30%
Purity on storage ([2]; 40° C., 60 Days): 98.15%
Purity on storage ([2]; 40° C., 90 Days): 97.69%
Purity after 30 days at a temperature of 25° C. with a relative humidity of 90% ± 5% [3]: 98.49%
Purity after 30 days at high temperature (60° C.) [3]: 94.57%
Purity after 30 days at a light intensity of 4500 Lx ± 500 Lx [3]: 94.45%
Initial purity [3]: 99.28%

Cc1c(CCC(=O)O)[nH]c2ccc(OCc3ccc(C4CCCC4)c(C(F)(F)F)c3)cc12 [Crystal form B]
Shape (appearance) [1, 5]: Off-white
Shape (appearance) [1, 6]: Off-white
Shape (appearance) [1, 7]: Off-white
Shape (appearance) ([1]; Initial State): Off-white
Shape (appearance) [1, 8]: Off-white
Shape (appearance) [1, 9]: Pale yellow
Shape (appearance) [1, 10]: Yellow solid
Shape (appearance) [1, 11]: Off-white
Shape (appearance) [1, 12]: Off-white
Shape (appearance) [1, 13]: Off-white
Purity on storage ([2]; 25° C., 0 Days): 99.14%
Purity on storage ([2]; 25° C., 15 Days): 99.05%
Purity on storage ([2]; 25° C., 30 Days): 99.00%
Purity on storage ([2]; 25° C., 45 Days): 98.93%
Purity on storage ([2]; 25° C., 60 Days): 98.94%
Purity on storage ([2]; 25° C., 90 Days): 98.86%
Purity on storage ([2]; 40° C., 0 Days): 99.14%
Purity on storage ([2]; 40° C., 15 Days): 98.88%
Purity on storage ([2]; 40° C., 30 Days): 98.73%
Purity on storage ([2]; 40° C., 45 Days): 98.68%
Purity on storage ([2]; 40° C., 60 Days): 98.66%
Purity on storage ([2]; 40° C., 90 Days): 98.40%
Purity after 30 days at a temperature of 25° C. with a relative humidity of 90% ± 5% [3]: 98.50%
Purity after 30 days at high temperature (60° C.) [3]: 97.21%
Purity after 30 days at a light intensity of 4500 Lx ± 500 Lx [3]: 94.55%
Initial purity [3]: 99.44%

Cc1c(CCC(=O)[O][Ca][O]C(=O)CCc2[nH]c3ccc(OCc4ccc(C5CCCC5)c(C(F)(F)F)c4)cc3c2C)[nH]c2ccc(OCc3ccc(C4CCCC4)c(C(F)(F)F)c3)cc12 [Crystal form G]
Shape (appearance) [1, 5]: Off-white solid
Shape (appearance) [1, 6]: Off-white solid
Shape (appearance) [1, 7]: Off-white solid
Shape (appearance) ([1]; Initial State): Off-white solid
Shape (appearance) [1, 8]: Off-white solid
Shape (appearance) [1, 9]: Pale yellow
Shape (appearance) [1, 10]: Yellow solid
Shape (appearance) [1, 11]: Off-white solid
Shape (appearance) [1, 12]: Off-white solid
Shape (appearance) [1, 13]: Off-white solid
Purity on storage ([2]; 25° C., 0 Days): 99.48%
Purity on storage ([2]; 25° C., 15 Days): 99.42%
Purity on storage ([2]; 25° C., 30 Days): 99.43%
Purity on storage ([2]; 25° C., 45 Days): 99.43%
Purity on storage ([2]; 25° C., 60 Days): 99.41%
Purity on storage ([2]; 25° C., 90 Days): 99.36%
Purity on storage ([2]; 40° C., 0 Days): 99.48%
Purity on storage ([2]; 40° C., 15 Days): 99.28%
Purity on storage ([2]; 40° C., 30 Days): 99.27%
Purity on storage ([2]; 40° C., 45 Days): 99.24%
Purity on storage ([2]; 40° C., 60 Days): 99.16%
Purity on storage ([2]; 40° C., 90 Days): 99.01%
Stability when stored at 25° C. and 40° C. for 90 days ([2]; summary of Table 27, 90 days): higher stability
Purity after 30 days at a temperature of 25° C. with a relative humidity of 90% ± 5% [3]: 98.78%
Purity after 30 days at high temperature (60° C.) [3]: 99.12%
Purity after 30 days at a light intensity of 4500 Lx ± 500 Lx [3]: 96.02%
Initial purity [3]: 99.60%
Stability under high temperature, high humidity, and light exposure conditions compared to the other crystal forms ([3]; summary of Tables 25 and 26, versus crystal forms A, B, Q): higher stability
Crystal form obtained after stirring in solvent ([4]; EtOH, H2O or EtOH/H2O mixtures, 4 days): obtain the crystal form G
Crystal form obtained after exposure to volatile solvent vapour ([4]; MeOH or EtOH vapour, approximately one week): obtain the crystal form G
